Test [1] relates to Splotch homozygous (Sp−/−) embryos. The experiment in a line: Rescue of neural tube defect in Pax3 mutant Splotch mouse model of spina bifida. The format is in vivo.
The test system is the same in test [2]. The test can be described thus: H3K27me2, H3K27me3 and KDM6B staining of neural tube explants from folate-rescued Splotch homozygous embryos. As to conditions: folate-rescued Sp−/− embryos E10.0 (30 somite), neural crest cells of neural tube explants, compared with wild-type. The format is in vivo, mouse. On the procedure:
After 140 hours neural crest cells were allowed to differentiate in the absence of growth factor for 2 days. After differentiation, neural crest cells from wild-type and Sp−/− embryo explant cultures were stained with DAPI, H3K27me2, H3K27me3 and KDM6B antibodies (Abeam, Inc Cambridge, Mass. 02139-1517). DAPI, H3K27me2, H3K27me3 and KDM6B positive cells from five different explant cultures were counted and expressed as a percentage of DAPI positive cells. […] The protein loading control was ascertained with Ponseau S staining.

One molecule from patent US20130029998A1, “Method of Detecting and Profiling Progression of the Risk of Neurodegenerative Diseases” (priority 2010, published 2013) can be followed below.

Regarding `Nc1nc2ncc(CNc3ccc(C(=O)N[C@@H](CCC(=O)O)C(=O)O)cc3)nc2c(=O)[nH]1` [Folic acid, folic acid], the neural tube defect result in test [1] is given as “rescue of neural tube defect”. Besides, in test [2], the “H3K27me2 expression (positive cells as a percentage of DAPI positive cells)” value was “reversal to near wild-type expression”, the “H3K27me3 expression (positive cells as a percentage of DAPI positive cells)” value is “reversal to near wild-type expression” and the “KDM6B expression (positive cells as a percentage of DAPI positive cells)” value is recorded as “reversal to near wild-type expression”. In addition, the “H3K27me2 expression (positive cells as a percentage of DAPI positive cells)” value in test [2] (listed as folic acid) was “reversal”.
